Source: PMC7725506, “Functional Diversification of SRSF Protein Kinase to Control Ubiquitin-Dependent Neurodevelopmental Signaling” (Developmental Cell, 2020)

Assays:
[1] = system: RNF12 SR-motif; assay: RNF12 SR-motif phosphorylation in mouse cortical neurons by phos-tag immunoblotting; assay type: cell-based; conditions: mature mouse cortical neurons cultured for 21 days, 10 μM, 4 h
Procedure: Figure 7 The SRPK-RNF12 Signaling Pathway Operates in Neurons (A) Primary cortical neurons isolated from E16.5 C57BL6 mice were cultured for the indicated number of days in vitro (DIV) and RNF12, SRPK1, and SRPK2, synaptophysin and actin levels analyzed via immunoblotting alongside the indicated mESC lines. (B) Cortical neurons were cultured for 21 days and treated with 10 μM MG132 and protein levels analyzed by immunoprecipitation and immunoblotting (REX1) and immunoblotting (RNF12 and ERK1/2). (C) Cortical neurons were cultured in vitro for the indicated number of days (DIV) and RNF12 and MAP2 neuron specific marker analyzed by immunofluorescence. Scale bar: 20 μm. (D) RNF12 SR-motif phosphorylation during in vitro mouse cortical neuron maturation was analyzed via phos-tag immunoblotting for RNF12. […] Synaptophysin and actin levels were determined by immunoblotting. […] Synaptophysin and actin levels were determined by immunoblotting. (F) The SRPK-RNF12-REX1 signaling pathway regulates neural gene expression and is disrupted in intellectual disability disorders. SRPK phosphorylates the RNF12 SR-motif to promote REX1 ubiquitylation and proteasomal degradation, which acts as a “brake” for neural gene expression in self-renewing pluripotent stem cells. In intellectual disability, inactivating mutations in SRPKs or RNF12 lead to REX1 accumulation and aberrant induction of neural genes. […]

[2] = system: RNF12 SR-motif; assay: RNF12 SR-motif phosphorylation in mESCs by phos-tag immunoblotting; assay type: cell-based, mouse; conditions: 4 h
Text: RNF12 4xSA = S212A/S214A/S227A/S229A. (B) Rlim^−^/y mESCs were transfected with the indicated RNF12 constructs and lysates treated with λ-phosphatase and analyzed by phos-tag immunoblotting for RNF12. Unphosphorylated recombinant RNF12 is included as a control. […] RNF12 4xSA is included as an unphosphorylated control. […] (F) Phosphorylated peptides detected by mass spectrometry following in vitro phosphorylation of RNF12 by SRPK1. pS, phospho-serine. (G) Autoradiography of RNF12 WT or S212A/S214A/S227A/S229A (4xSA) following a radioactive kinase reaction with SRPK1, SRPK2, or SRPK3. RNF12 protein is detected by Coomassie staining. (H) Srpk1^+/+ and Srpk1^−/− mESCs were transfected with control or SRPK2 siRNA and RNF12 SR-motif phosphorylation analyzed by phos-tag immunoblotting for RNF12. SRPK2, SRPK1, RNF12, and ERK1/2 levels were determined by immunoblotting. Related to Figure S2; Tables S3 and S4.
All compounds were diluted in DMSO and mESCs treated with 10 μM inhibitor for 4 h prior lysis unless indicated otherwise. […] For proteasome inhibition mESCs were treated with 10 μM MG132 (Sigma Aldrich) for 6 h. All chemicals are listed in the Key Resource Table.
Phos-tag analyses were performed by loading protein samples containing 10 mM MnCl2 in 8% polyacrylamide gels containing 50 μM Phos-tag reagent (MRC-PPU reagents and services) and 0.1 mM MnCl2. After electrophoresis, gels were washed three times for 10 mins in Transfer buffer (48 mM Tris, 39 mM Glycine, 20% Methanol) supplemented with 20 mM EDTA. Proteins were then transferred to Nitrocellulose membranes, blocked and probed with the indicated antibodies. All protein signals were quantified using Image Studio (LI-COR Biosciences) or Image Lab software (Bio-Rad). Primary antibodies are listed in the Key Resource Table. […]
SR-motif phosphorylation of HA-immunoprecipitated RNF12 analysed by phos-tag immunoblotting.
HA-RNF12 levels are shown as a control. Fully phosphorylated (4-P) and unphosphorylated (0-P) RNF12 SR-motif is indicated by open (○) and closed (●) circles respectively.
Data are represented as mean ± S.D. (n=3). (C) RNF12 expressing mESCs were treated with 10 […]
immunoblotting. HA-RNF12 and ERK1/2 levels are shown as a control. (D) RNF12 expressing […]
5 h (+ wash-out). RNF12 phosphorylation was analysed via phos-tag immunoblotting. ERK1/2 levels are shown as a loading control. (E) Multiple Srpk1-/- and Srpk2-/- mESC clones were […]

[3] = biological target: SRPK1 (Homo sapiens, UniProt Q96SB4); assay type: biochemical; conditions: in vitro, RNF12 phospho-Ser214 immunoblot quantified; read-out: IC50, inhibition of RNF12 phosphorylation by SRPK1
Procedure: Cells were lysed, and 1.5 mg of protein immunoprecipitated with 2 μg of SRPK1 or SRPK2 antibodies (BD Biosciences). Immunoprecipitates were then washed with lysis buffer supplemented with 500 mM NaCl and half of the sample was resuspended in loading buffer. The remainder was subjected to in vitro phosphorylation assay containing 0.5 μg RNF12 and 2 mM ATP in kinase buffer (50 mM Tris-HCl [pH 7.5], 0.1 mM EGTA, 10 mM MgCl2, 2 mM DTT) and incubated at 30°C for 30 min. […] For radioactive in vitro kinase assays, reactions were supplemented with 1 μCi γ-^32P ATP. Reactions were incubated at 30°C for 30 min in presence or absence of inhibitor as indicated and samples subjected to polyacrylamide electrophoresis and immunoblot or Coomassie blue staining and signal detected via ECL, infrared detection or autoradiography.
Supplemental Figure Legends
(Related to Figure 1). (A) Wild-type (WT) mESCs were analysed for protein copy number by absolute quantitative proteomics. […]
Data are represented as mean ± S.E.M. (n=3). […] ND = not detected. (B) Inhibition of RNF12 phosphorylation in vitro by SRPK1 and SRPK2 in the presence of varying concentrations of the indicated SRPK inhibitors was determined by immunoblotting for RNF12 phospho-Ser214 (Left). […] Immunoblots were quantified to generate SRPK inhibitor dose-response curves for inhibition of RNF12 phosphorylation by SRPK1 and SRPK2 in vitro (Right). […]

SRPK1, sequence (Q96SB4 whole entry): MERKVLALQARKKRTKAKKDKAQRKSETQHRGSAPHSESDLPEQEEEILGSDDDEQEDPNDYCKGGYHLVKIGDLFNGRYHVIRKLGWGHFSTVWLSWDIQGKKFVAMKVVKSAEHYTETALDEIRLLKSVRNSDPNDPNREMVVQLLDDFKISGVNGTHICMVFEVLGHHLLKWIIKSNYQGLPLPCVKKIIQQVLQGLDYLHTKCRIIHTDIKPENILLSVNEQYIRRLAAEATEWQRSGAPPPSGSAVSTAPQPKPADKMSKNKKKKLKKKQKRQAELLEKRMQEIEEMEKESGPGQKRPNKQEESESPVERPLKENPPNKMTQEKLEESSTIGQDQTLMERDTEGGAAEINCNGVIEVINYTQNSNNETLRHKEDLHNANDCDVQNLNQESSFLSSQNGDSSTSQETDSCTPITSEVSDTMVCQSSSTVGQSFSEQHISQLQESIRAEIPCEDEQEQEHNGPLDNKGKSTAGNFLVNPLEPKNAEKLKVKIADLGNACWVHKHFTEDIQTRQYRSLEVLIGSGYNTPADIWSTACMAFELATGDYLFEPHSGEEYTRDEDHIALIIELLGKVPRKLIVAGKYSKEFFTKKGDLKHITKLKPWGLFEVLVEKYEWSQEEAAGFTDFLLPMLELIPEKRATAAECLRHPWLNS

Compound: CCc1cc2c(cc1-c1cccc(S(=O)(=O)F)c1)C(C)(C)c1[nH]c3cc(C#N)ccc3c1C2=O [SRPKIN-1]
- RNF12 phosphorylation (phos-tag) [1]: suppressed RNF12 phosphorylation
- Ser214 phosphorylation of the high-mobility form of RNF12 ([2]; 10 μM, HA-RNF12 immunoprecipitates, phos-tag and phospho-Ser214 multiplex immunoblot): completely dephosphorylated
- concentration leading to RNF12 SR-motif de-phosphorylation (as low as) [2]: 1 µM
- IC50 [3]: 15.2 nM
